Legend:
[1] = test system: cardiac allograft (BalbC donor heart in B6 recipient); assay: Cardiac allograft rejection model (intraabdominal heterotopic vascularized cardiac transplantation between genetically mismatched mice); format: in vivo, mouse; settings: for survival after 20 days: BalbC heart into B6, after 20 days; for survival after 50 days: BalbC heart into B6, after 50 days
Experimental: The ability of an APQ inhibitor of the present disclosure to protect against transplant rejection is determined in an intraabdominal heterotopic vascularized cardiac transplantation model between genetically mismatched mice. Four conditions are compared: the use of an APQ4 inhibitor alone, the use of a CTLA4 Ig alone, the combination of an APQ4 inhibitor with a CTLA4 Ig, and a control.
The donor mouse (BalbC, fully genetically mismatched with respect to the recipient mouse which is B6, C57BL/6) is given a 10 mg/kg IP bolus of 2-((3,5-bis(trifluoromethyl)phenyl)carbamoyl)-4-chlorophenyl dihydrogen phosphate in TrisBase 30 minutes prior to surgery.
Before removing the heart, the donor is perfused with Ringer's solution containing 10 μM N-[3,5-bis(trifluoromethyl)phenyl]-5-chloro-2-hydroxybenzamide. After removal from the donor, the heart is stored at 0-4° C. for 8 hours in Ringer's solution containing 10 μM N-[3,5-bis(trifluoromethyl)phenyl]-5-chloro-2-hydroxybenzamide (Cold Ischemic Storage).
30 Minutes prior to surgery, the recipient mouse is given a 10 mg/kg IP bolus of 2-((3,5-bis(trifluoromethyl)phenyl)carbamoyl)-4-chlorophenyl dihydrogen phosphate in TrisBase. The heart is then transplanted into the recipient mouse (B6 mouse) using the vascularized heterotopic cardiac transplantation model. After closing, the recipient mouse receives 10 mg/kg IP injection of 2-((3,5-bis(trifluoromethyl)phenyl)carbamoyl)-4-chlorophenyl dihydrogen phosphate in TrisBase every 6 hours for 5 days.
The recipient mouse (B6) is administered a single dose of Belatacept IP at 10 mg/kg on the day of the transplant surgery as well as a single dose of Belatacept IP at 10 mg/kg 24 hours after surgery.
As a negative control, both the donor and recipient mice receive IP administration of TrisBase with neither an APQ4 inhibitor nor a CTLA4 Ig. Results
The recipient mice are monitored until their hearts stops beating.

[2] = test system: explanted heart from BALB/c mice; assay: Cardiac explant experiment: apoptosis by Annexin V flow cytometry after 8 h Cold Ischemic Storage; design: species or system mouse; settings: 10 μM in Ringer's solution, 8 hours cold storage at 0-4° C.
Experimental: This experiment is a model for determining the extent of apoptosis occurring in an explanted heart from BALB/c mice. Hearts are perfused with Ringer's solution either supplemented with 10 μM of N-[3,5-bis(trifluoromethyl)phenyl]-5-chloro-2-hydroxybenzamide (Compound 1), or without such supplementation. The explanted hearts are then placed in Cold Ischemic Storage (at 0-4° C.) in their respective buffer solutions for 8 hours. The hearts are then photographed and triturated for analysis of apoptosis using Annexin V flow cytometry. Annexin V is used to label phosphatidylserine on the surface of cells, and this is a conventional marker for cells that have undergone apoptosis. […] In contrast, hearts maintained in the APQ4-inhibitor supplemented Ringer's solution show only about 8% apoptotic cells.

O=C(Nc1cc(C(F)(F)F)cc(C(F)(F)F)c1)c1cc(Cl)ccc1OP(=O)(O)O [APQ4 inhibitor, 2-((3,5-bis(trifluoromethyl)phenyl)carbamoyl)-4-chlorophenyl dihydrogen phosphate]
survival after 20 days [1]: about 30%
survival after 50 days [1]: about 10%
survival from about 60 days through the end of monitoring at 120 days ([1]; about 60 days to 120 days): about 5%

O=C(Nc1cc(C(F)(F)F)cc(C(F)(F)F)c1)c1cc(Cl)ccc1O [Compound 1, N-[3,5-bis(trifluoromethyl)phenyl]-5-chloro-2-hydroxybenzamide]
apoptotic cells [2]: about 8%

Belatacept [CTLA4 Ig, reference compound]
survival after 20 days [1]: approximately 60%
survival after 50 days [1]: about 40%
survival from about 60 days through the end of monitoring at 150 days ([1]; about 60 days to 150 days): about 13%

— patent publication US20180042873A1, “NOVEL METHODS” (Aeromics, Inc., priority 2014, published 2018)
